Reference: patent US20230159445A1, “STAT INHIBITORY COMPOUNDS AND COMPOSITIONS” (JANPIX LIMITED, priority 2020, published 2023)

What was measured:
[1] = system: glutathione (GSH); assay: Reactivity Profiling with Glutathione (GSH), half-life by HPLC; details: 5 mM glutathione (GSH) in IMDM with 10% FBS
[2] = system: MV4-11 cells; assay: MV4-11 Cell Cytotoxicity Assay (CellTiter-Blue, 72 h); type: cell-based, human; details: Homo sapiens, MV4-11; MV-4-11 cells
Procedure, shortened: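 Viability read-out: CellTiter-Blue, 1 h, fluorescence 560/590 nm. Preceded by 72 h exposure (37° C, 5% CO2) to twofold dilution series from 50 μM, triplicate, 0.5% DMSO vehicle, applied 24 h after plating.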

Structure (SMILES)	half-life at 25 μM [1] [min]	IC50 [2] [nM]
O=C(O)c1ccc(N(C(=O)CN(Cc2c(F)cc(F)cc2F)S(=O)(=O)c2c(F)c(F)c(F)c(F)c2F)C2CCC2)c(OC2CC2)c1 [Compound 1137, 4-(N-cyclobutyl-2-(N-(2,4,6-trifluorobenzyl)-(2,3,4,5,6-pentafluoro-phenyl)sulfonamido)acetamido)-3-cyclopropoxybenzoic acid]	0.1 to 142	1000 to 3160
COc1cc(C(=O)N(C)S(C)(=O)=O)ccc1N(Cc1cc(C2CC2)cc(C(C)(C)C)c1)C(=O)CN(Cc1cnccc1C(F)(F)F)S(=O)(=O)c1c(F)c(F)c(F)c(F)c1F [Compound 1147, 4-(N-(3-(tert-butyl)-5-cyclopropylbenzyl)-2-(N-((4-(trifluoromethyl)pyridin-3-yl)methyl)-(2,3,4,5,6-pentafluoro-phenyl)sulfonamido)acetamido)-3-methoxy-N-methyl-N-(methylsulfonyl) benzamide]	554 to 100000	0.01 to 316
COc1cc(C(=O)O)ccc1N(Cc1cccc(C(C)(C)C)c1)C(=O)CN(Cc1cnccc1C(F)(F)F)S(=O)(=O)c1c(F)c(F)c(F)c(F)c1F [Compound 1149, 4-(N-(3-(tert-butyl)benzyl)-2-(N-((4-(trifluoromethyl)pyridin-3-yl)methyl)-(2,3,4,5,6-pentafluoro-phenyl)sulfonamido)acetamido)-3-methoxybenzoic acid]	0.1 to 142	316 to 1000
COc1cc(C(=O)O)ccc1N(Cc1cccc(C(C)(C)C)c1)C(=O)CN(Cc1c(F)cc(F)cc1F)S(=O)(=O)c1c(F)c(F)c(F)c(F)c1F [Compound 1150, 4-(N-(3-(tert-butyl)benzyl)-2-(N-(2,4,6-trifluorobenzyl)-(2,3,4,5,6-pentafluoro-phenyl)sulfonamido)acetamido)-3-methoxybenzoic acid]	0.1 to 142	0.01 to 316
COc1cc(C(=O)O)ccc1N(Cc1cc(C2CC2)cc(C(C)(C)C)c1)C(=O)CN(C12CC(C1)C2)S(=O)(=O)c1c(F)c(F)c(F)c(F)c1F [Compound 1152, 4-(2-(N-(bicyclo[1.1.1]pentan-1-yl)-(2,3,4,5,6-pentafluorophenyl)sulfon-amido)-N-(3-(tert-butyl)-5-cyclopropylbenzyl)acetamido)-3-methoxybenzoic acid]	0.1 to 142	1000 to 3160
COc1cc(C(=O)O)ccc1N(Cc1cccc(N2CCCC2)c1)C(=O)CN(Cc1cnccc1C(F)(F)F)S(=O)(=O)c1c(F)c(F)c(F)c(F)c1F [Compound 1153, 3-methoxy-4-(2-(N-((4-(trifluoromethyl)pyridin-3-yl)methyl)-(2,3,4,5,6-pentafluoro-phenyl)sulfonamido)-N-(3-(pyrrolidin-1-yl)benzyl)acetamido) benzoic acid]	0.1 to 142	316 to 1000
COc1cc(C(=O)O)ccc1N(Cc1ccc2ccccc2c1)C(=O)CN(Cc1cnccc1C(F)(F)F)S(=O)(=O)c1c(F)c(F)c(F)c(F)c1F [Compound 1157, 3-methoxy-4-(N-(naphthalen-2-ylmethyl)-2-(N-((4-(trifluoromethyl)pyridin-3-yl)methyl)-(2,3,4,5,6-pentafluoro-phenyl)sulfonamido)acetamido)benzoic acid]	0.1 to 142	1000 to 3160
O=C(O)c1ccc(N(Cc2cccc(-n3cccc3)c2)C(=O)CN(Cc2cnccc2C(F)(F)F)S(=O)(=O)c2c(F)c(F)c(F)c(F)c2F)c(OC2CC2)c1 [Compound 1161, 4-(N-(3-(1H-pyrrol-1-yl)benzyl)-2-(N-((4-(trifluoromethyl)pyridin-3-yl)methyl)-(2,3,4,5,6-pentafluoro-phenyl)sulfonamido)acetamido)-3-cyclopropoxybenzoic acid]	0.1 to 142	316 to 1000
COc1cc(C(=O)O)ccc1N(Cc1cc(C2CC2)cc(N2CCCC2)c1)C(=O)CN(Cc1cnccc1C(F)(F)F)S(=O)(=O)c1c(F)c(F)c(F)c(F)c1F [Compound 1165, 4-(N-(3-cyclopropyl-5-(pyrrolidin-1-yl)benzyl)-2-(N-((4-(trifluoromethyl)pyridin-3-yl)methyl)-(2,3,4,5,6-pentafluoro-phenyl)sulfonamido)acetamido)-3-methoxybenzoic acid]	0.1 to 142	316 to 1000
Cc1cc(C(=O)O)cc(C)c1N(Cc1cc(C2CC2)cc(C(C)(C)C)c1)C(=O)CN(Cc1c(F)c(F)c(F)c(F)c1F)S(=O)(=O)c1c(F)c(F)c(F)c(F)c1F [Compound 1201, 4-(N-(3-(tert-butyl)-5-cyclopropylbenzyl)-2-(N-((perfluorophenyl)methyl)-(2,3,4,5,6-pentafluorophenyl)sulfonamido)acetamido)-3,5-dimethylbenzoic acid]	554 to 100000	316 to 1000
O=C(O)c1ccc(N(Cc2cc(C3CC3)cc(C3CC3)c2)C(=O)CN(Cc2ccc(F)cc2Cl)S(=O)(=O)c2ccc(F)nc2)c(OC2CC2)c1 [Compound 1225, 4-(2-(N-(2-chloro-4-fluorobenzyl)-(6-fluoropyridine)-3-sulfonamido)-N-(3,5-dicyclopropylbenzyl)acetamido)-3-cyclopropoxybenzoic acid]	554 to 100000	3160 to 100000

More lines, main results first:

half-life at 25 μM [1] [min]	Structure (SMILES)	IC50 [2] [nM]
554 to 100000	CC(C)(C)c1cc(CN(C(=O)CN(Cc2ccc(C(F)(F)F)cc2)S(=O)(=O)c2c(F)c(F)c(F)c(F)c2F)c2ccc(C(=O)O)cc2OC2CC2)cc(C2CC2)c1 [Compound 1136, 4-(N-(3-(tert-butyl)-5-cyclopropylbenzyl)-2-(N-(4-(trifluoromethyl)benzyl)-(2,3,4,5,6-pentafluoro-phenyl)sulfonamido)acetamido)-3-cyclopropoxybenzoic acid]	1000 to 3160
142 to 247	O=C(O)c1ccc(N(Cc2cc(C3CC3)cc(C3CC3)c2)C(=O)CN(Cc2cnccc2C(F)(F)F)S(=O)(=O)c2c(F)c(F)c(F)c(F)c2F)c(OC2CC2)c1 [Compound 1163, 3-cyclopropoxy-4-(N-(3,5-dicyclopropylbenzyl)-2-(N-((4-(trifluoromethyl)pyridin-3-yl)methyl)-(2,3,4,5,6-pentafluoro-phenyl)sulfonamido)acetamido)benzoic acid]	0.01 to 316
142 to 247	COc1cc(C(=O)O)ccc1N(Cc1cc(C2CC2)cc(C(C)(C)C)c1)C(=O)CN(Cc1ncc(F)cc1Cl)S(=O)(=O)c1c(F)c(F)c(F)c(F)c1F [Compound 1179, 4-(N-(3-(tert-butyl)-5-cyclopropylbenzyl)-2-(N-((3-chloro-5-fluoropyridin-2-yl)methyl)-(2,3,4,5,6-pentafluorophenyl)sulfon-amido)acetamido)-3-methoxybenzoic acid]	0.01 to 316
142 to 247	COc1cc(C(=O)O)ccc1N(Cc1cc(C2CC2)cc(C(C)(C)C)c1)C(=O)CN(Cc1ccc(F)cc1C#N)S(=O)(=O)c1c(F)c(F)c(F)c(F)c1F [Compound 1180, 4-(N-(3-(tert-butyl)-5-cyclopropylbenzyl)-2-(N-(2-cyano-4-fluorobenzyl)-(2,3,4,5,6-pentafluorophenyl)sulfon-amido)acetamido)-3-methoxybenzoic acid]	0.01 to 316
247 to 554	COc1ccccc1CN(CC(=O)N(Cc1cc(C2CC2)cc(C(C)(C)C)c1)c1ccc(C(=O)O)cc1OC1CC1)S(=O)(=O)c1c(F)c(F)c(F)c(F)c1F [Compound 1234, 4-(N-(3-(tert-butyl)-5-cyclopropylbenzyl)-2-(N-(2-methoxybenzyl)-(2,3,4,5,6-pentafluoro-phenyl)sulfonamido)acetamido)-3-cyclopropoxybenzoic acid]	316 to 1000
554 to 100000	CC(C)(C)c1cc(CN(C(=O)CN(Cc2ccccc2OC(F)(F)F)S(=O)(=O)c2c(F)c(F)c(F)c(F)c2F)c2ccc(C(=O)O)cc2OC2CC2)cc(C2CC2)c1 [Compound 1235, 4-(N-(3-(tert-butyl)-5-cyclopropylbenzyl)-2-(N-(2-(trifluoromethoxy)benzyl)-(2,3,4,5,6-pentafluoro-phenyl)sulfonamido)acetamido)-3-cyclopropoxybenzoic acid]	316 to 1000
554 to 100000	CN(C)c1ccccc1CN(CC(=O)N(Cc1cc(C2CC2)cc(C(C)(C)C)c1)c1ccc(C(=O)O)cc1OC1CC1)S(=O)(=O)c1c(F)c(F)c(F)c(F)c1F [Compound 1236, 4-(N-(3-(tert-butyl)-5-cyclopropylbenzyl)-2-(N-(2-(dimethylamino)benzyl)-(2,3,4,5,6-pentafluorophenyl)sulfon-amido)acetamido)-3-cyclopropoxybenzoic acid]	316 to 1000
554 to 100000	CC(C)(C)c1cc(CN(C(=O)CN(Cc2ccccc2N2CCCC2)S(=O)(=O)c2c(F)c(F)c(F)c(F)c2F)c2ccc(C(=O)O)cc2OC2CC2)cc(C2CC2)c1 [Compound 1237, 4-(N-(3-(tert-butyl)-5-cyclopropylbenzyl)-2-(N-(2-(pyrrolidin-1-yl)benzyl)-(2,3,4,5,6-pentafluoro-phenyl)sulfonamido)acetamido)-3-cyclopropoxybenzoic acid]	316 to 1000
